Reference: patent US20260207621A1 (Vividion Therapeutics, Inc., priority 2022, published 2026)

What follows are molecules tested on Nrf2 (assay: Nrf2 antagonism assay: ARE luciferase reporter in KYSE-70 cells). Conditions: Homo sapiens, KYSE-70, KYSE-70 cells, positive Imax corresponds to Nrf2 antagonism, read-out: KYSE70 Cellular ARE Luciferase Imax (%).
Format: cell-based
From the text: NRF2 binds to a promoter region, antioxidant response element (ARE), to initiate expression of multiple genes. ARE luciferase reporter assays are used to test whether a ligand can activate or repress the expression of target genes using luciferase as a reporter gene.
KYSE-70 is an esophageal squamous cell carcinoma cell line with a Nrf2 mutation at amino acid position W24C. This mutation lowers the affinity between the E3 ligase that includes KEAP1 and Nrf2, resulting in a state in which the synthesis rate of new Nrf2 is faster than the E3's degradation rate of Nrf2, resulting in a “Nrf2 high” state. In KYSE-70 cells, genes are inserted directly after the ARE that trigger the expression of luciferase. Without a NRF2 antagonist in this modified KYSE70 cell line which has an inherently “NRF2 high state”, luciferase is expressed, and a signal is observed.
Nrf2 antagonists bind at C151 of KEAP1 and stabilize the E3 which results in an increased degradation rate of Nrf2. Increased degradation of Nrf2 results in less expression of luciferase, and therefore a less intense signal.
An IC50 is generated from the dose-response curve and an Imax. A positive Imax corresponds to Nrf2 antagonism. Imax >90% correlates with in vivo tumor grown inhibition. Compounds with Imax >50% were included in this description.
`C=CC(=O)N1CCOCCC1c1cc(Cl)cc(-c2ncnc(N)n2)c1` (racemic) [Compound 152, 1-(5-(3-(4-amino-1,3,5-triazin-2-yl)-5-chlorophenyl)-1,4-oxazepan-4-yl)prop-2-en-1-one] was tested, and the Emax was 78%. `C=CC(=O)N1[C@H](C)COC[C@H]1c1cc(Cl)cc(-c2ncccn2)c1` (single isomer, unassigned) [Compound 20] gave an Emax of 67%. `C=CC(=O)N1CCN(S(C)(=O)=O)C[C@H]1c1cc(Cl)cc(-c2nnn(C)n2)c1` (single isomer, unassigned) [Compound 21] gave an Emax of 54%. `C=CC(=O)N1CCN(C(C)=O)C[C@H]1c1cc(Cl)cc(-c2nnn(C)n2)c1` (single isomer, unassigned) [Compound 22] gave an Emax of 64%. Work on `C=CC(=O)N1CCOCC1c1cc(Cl)nc(-c2nnn(C)n2)c1` (single isomer, unassigned) [Compound 23, 1-(3-(2-chloro-6-(2-methyl-2H-tetrazol-5-yl)pyridin-4-yl)morpholino)prop-2-en-1-one] yielded an Emax of 55%. `C=CC(=O)N1[C@H](C)COC[C@H]1c1cc(Cl)cc(-c2ccn(C)c(=O)c2)c1` (single isomer, unassigned) [Compound 24] was tested, and the Emax was 73%. In the case of `C=CC(=O)N1CCOCC1c1cc(Cl)nc(-c2ccn(C)c(=O)c2)c1` (single isomer, unassigned) [Compound 25, 4-(4-acryloylmorpholin-3-yl)-6-chloro-1′-methyl-[2,4′-bipyridin]-2′(1′H)-one], the Emax is reported as 86%. Work on `C=CC(=O)N1CCOCC1c1cc(Cl)nc(-c2ccnnc2)c1` (single isomer, unassigned) [Compound 30, 1-(3-(2-chloro-6-(pyridazin-4-yl)pyridin-4-yl)morpholino)prop-2-en-1-one] yielded an Emax of 72%. Work on `C=CC(=O)N1CCOC[C@H]1c1cc(Cl)cc(-c2ncnc(N)n2)c1` (single isomer, unassigned) [Compound 55] yielded an Emax of 93%. Work on `C=CC(=O)N1CCOCC1c1cc(Cl)cc(-c2cnnc(OC)c2)c1` (single isomer, unassigned) [Compound 56, 1-(3-(3-chloro-5-(6-methoxypyridazin-4-yl)phenyl)morpholino)prop-2-en-1-one] yielded an Emax of 74%. For `C=CC(=O)N1CCOCC1c1cc(Cl)cc(-c2ccn3cc(C)nc3c2)c1` (single isomer, unassigned) [Compound 57, 1-(3-(3-chloro-5-(2-methylimidazo[1,2-a]pyridin-7-yl)phenyl)morpholino)prop-2-en-1-one], the Emax was 84%. Work on `C=CC(=O)N1CCOCC1c1cc(Cl)cc(-c2cncc(C)n2)c1` (single isomer, unassigned) [Compound 59, 1-(3-(3-chloro-5-(6-methylpyrazin-2-yl)phenyl)morpholino)prop-2-en-1-one] yielded an Emax of 81%. `C=CC(=O)N1CCOCC1c1cc(Cl)cc(-c2ccnc(C(N)=O)c2)c1` (single isomer, unassigned) [Compound 75, 4-(3-(4-acryloylmorpholin-3-y1)-5-chlorophenyl)picolinamide] gave an Emax of 92%. For `C=CC(=O)N1CC(C)(C)OCC1c1cc(Cl)nc(-c2ccnc(N)n2)c1` (single isomer, unassigned) [Compound 99, 1-(5-(2-(2-aminopyrimidin-4-yl)-6-chloropyridin-4-y1)-2,2-dimethylmorpholino)prop-2-en-1-one], the Emax was 82%. With `C=CC(=O)N1[C@H](C)COC[C@H]1c1cc(Cl)cc(-c2ccc(F)c(C(N)=O)c2)c1` (single isomer, unassigned) [Compound 108] the Emax was 70%. In the case of `C=CC(=O)N1[C@H](C)COC[C@H]1c1cc(Cl)cc(-c2ccnc(C)n2)c1` (single isomer, unassigned) [Compound 109], the Emax is reported as 91%. `C=CC(=O)N1[C@H](C)COC[C@H]1c1cc(Cl)cc(-c2ccnc(N)n2)c1` (single isomer, unassigned) [Compound 110] showed an Emax of 93%. Molecule `C=CC(=O)N1CCOCC1c1cc(Cl)cc(-c2nccc3[nH]ccc23)c1` (single isomer, unassigned) [Compound 111, 1-(3-(3-chloro-5-(1H-pyrrolo[3,2-c]pyridin-4-yl)phenyl)morpholino)prop-2-en-1-one] has an Emax of 90%. With `C=CC(=O)N1CCOCC1(C)c1cc(Cl)cc(-c2ncnc(N)n2)c1` (single isomer, unassigned) [Compound 112, 1-(3-(3-(4-amino-1,3,5-triazin-2-yl)-5-chlorophenyl)-3-methylmorpholino)prop-2-en-1-one] the Emax was 95%. `C=CC(=O)N1CCOCC1(C)c1cc(Cl)cc(-c2ccnc(N)n2)c1` (single isomer, unassigned) [Compound 113, 1-(3-(3-(2-aminopyrimidin-4-yl)-5-chlorophenyl)-3-methylmorpholino)prop-2-en-1-one] showed an Emax of 94%. `C=CC(=O)N1CCOCC1(C)c1cc(Cl)cc(-c2ccc(F)c(C(N)=O)c2)c1` (single isomer, unassigned) [Compound 114, 3′-(4-acryloyl-3-methylmorpholin-3-yl)-5′-chloro-4-fluoro-[1,1′-biphenyl]-3-carboxamide] showed an Emax of 87%. For `C=CC(=O)N1CCOC[C@H]1c1cc(Cl)cc(-c2cnn(C3CC3)c2)c1` (single isomer, unassigned) [Compound 115], the Emax was 74%. For `C=CC(=O)N1CCOC[C@H]1c1cc(Cl)cc(-c2cnn(C)c2)c1` (single isomer, unassigned) [Compound 116], the Emax was 84%. `C=CC(=O)N1CCOC[C@H]1c1cc(Cl)cc(-c2cn[nH]c2)c1` (single isomer, unassigned) [Compound 117] gave an Emax of 84%. For `C=CC(=O)N1CCOC[C@H]1c1cc(Cl)cc(-n2cc(C)cn2)c1` (single isomer, unassigned) [Compound 118], the Emax was 63%. `C=CC(=O)N1CCOCC1c1cc(Cl)nc(-c2cc(N)ncn2)c1` (single isomer, unassigned) [Compound 119, 1-(3-(2-(6-aminopyrimidin-4-yl)-6-chloropyridin-4-yl)morpholino)prop-2-en-1-one] gave an Emax of 96%. With `C=CC(=O)N1CC2(CC2)OCC1c1cc(Cl)cc(-c2cc(N)ncn2)c1` (single isomer, unassigned) [Compound 140, 1-(6-(3-(6-aminopyrimidin-4-yl)-5-chlorophenyl)-4-oxa-7-azaspiro[2.5]octan-7-yl)prop-2-en-1-one] the Emax was 72%. Work on `C=CC(=O)N1CCOC[C@H]1c1cc(Cl)cc(-c2cnnc(N)c2)c1` (single isomer, unassigned) [Compound 141] yielded an Emax of 89%. Work on `C=CC(=O)N1[C@H](C)COC[C@H]1c1cc(Cl)nc(-c2ccnc(C)n2)c1` (single isomer, unassigned) [Compound 142] yielded an Emax of 81%. `C=CC(=O)N1CCOCC1c1cc(Cl)nc(-c2ncnc(N)n2)c1` (single isomer, unassigned) [Compound 146, 1-(3-(2-(4-amino-1,3,5-triazin-2-yl)-6-chloropyridin-4-yl)morpholino)prop-2-en-1-one] was tested, and the Emax was 71%. Work on `C=CC(=O)N1CCOCC12COc1c(-c3ncnc(N)n3)cc(Cl)cc12` (single isomer, unassigned) [Compound 151, 1-(7-(4-amino-1,3,5-triazin-2-yl)-5-chloro-2H-spiro[benzofuran-33′-morpholino]-4′-yl)prop-2-en-1-one] yielded an Emax of 81%. Work on `C=CC(=O)N1CC2(CC2)OCC1c1cc(Cl)cc(-c2ncnc(N)n2)c1` (single isomer, unassigned) [Compound 153, 1-(6-(3-(4-amino-1,3,5-triazin-2-y1)-5-chlorophenyl)-4-oxa-7-azaspiro[2.5]octan-7-yl)prop-2-en-1-one] yielded an Emax of 94%. `C=CC(=O)N1CC2(CC2)OCC1(C)c1cc(Cl)cc(-c2ncnc(N)n2)c1` (single isomer, unassigned) [Compound 160, 1-(6-(3-(4-amino-1,3,5-triazin-2-yl)-5-chlorophenyl)-6-methyl-4-oxa-7-azaspiro[2.5]octan-7-yl)prop-2-en-1-one] showed an Emax of 91%. `C=CC(=O)N1[C@H](C(N)=O)COC[C@H]1c1cc(Cl)nc(-c2ccc(F)c(C(N)=O)c2)c1` (single isomer, unassigned) [Compound 181] gave an Emax of 66%. `C=CC(=O)N1CCOC[C@H]1c1cc(Cl)cc(-c2c[nH]c(=O)[nH]2)c1` (single isomer, unassigned) [Compound 184] gave an Emax of 72%. Molecule `C=CC(=O)N1CCN(C(=O)C2CC2)C[C@H]1c1cc(Cl)cc(-c2ccnc(N)n2)c1` (single isomer, unassigned) [Compound 185] has an Emax of 94%. `C=CC(=O)N1CCN(C(=O)CC#N)C[C@H]1c1cc(Cl)cc(-c2ccnc(N)n2)c1` (single isomer, unassigned) [Compound 186] was tested, and the Emax was 83%. Molecule `C=CC(=O)N1CCN(C(=O)CC#N)C[C@H]1c1cc(Cl)cc(-c2ccnc(NC(=O)CC#N)n2)c1` (single isomer, unassigned) [Compound 189] has an Emax of 79%. Work on `C=CC(=O)N1[C@H](c2cc(Cl)nc(-c3ccn4ccnc4c3)c2)COC[C@H]1C(F)F` (single isomer, unassigned) [Compound 194] yielded an Emax of 84%. In the case of `C=CC(=O)N1CCN(C(=O)C2CC2)C[C@H]1c1cc(Cl)cc(-c2ccc(F)c(C(N)=O)c2)c1` (single isomer, unassigned) [Compound 195], the Emax is reported as 90%. Molecule `C=CC(=O)N1CCN(C(=O)C2CC2)C[C@H]1c1cc(Cl)cc(-c2nccc(N)n2)c1` (single isomer, unassigned) [Compound 196] has an Emax of 90%. Work on `C=CC(=O)N1CCN(C(=O)C2CC2)C[C@H]1c1cc(Cl)cc(-c2cc(N)ncn2)c1` (single isomer, unassigned) [Compound 197] yielded an Emax of 87%.
